Here are results for 46 compounds from patent US11040954B1, “CXCR3 receptor agonists” (RECEPTOS LLC, priority 2016, dated 2021).

Some results are limits rather than exact numbers.

This experiment has as its target T1, CXCR3 (Homo sapiens, UniProt P49682).
T1 construct: host or cells: CHO-K1 (cAMP Hunter CHOK1 CXCR3 Gi cell line)
T1 sequence (P49682 1-368): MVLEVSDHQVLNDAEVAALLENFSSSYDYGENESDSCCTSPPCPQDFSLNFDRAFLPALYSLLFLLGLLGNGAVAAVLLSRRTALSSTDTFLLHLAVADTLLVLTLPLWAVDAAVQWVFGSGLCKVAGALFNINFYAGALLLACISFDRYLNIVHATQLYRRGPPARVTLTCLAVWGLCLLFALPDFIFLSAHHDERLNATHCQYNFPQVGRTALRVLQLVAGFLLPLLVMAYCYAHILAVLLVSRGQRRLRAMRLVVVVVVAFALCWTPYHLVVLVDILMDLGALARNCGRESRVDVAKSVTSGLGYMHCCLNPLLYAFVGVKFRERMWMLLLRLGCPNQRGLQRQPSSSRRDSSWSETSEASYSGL
Nature of the experiment: CXCR3 cAMP agonist assay (cAMP Hunter CHOK1 CXCR3 Gi cell line, forskolin-stimulated, HitHunter cAMP detection). It is filed as cell-based. The note with it: cAMP Hunter CHOK1 CXCR3 Gi cells, 20 μM forskolin, 30 minutes; read-out: Activity (CXCR3 cAMP agonist assay compound EC50). The essentials:
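Agonist activity was measured as suppression of forskolin (20 μM)-induced cAMP, read by luminescent enzyme-fragment complementation with a cAMP standard curve and CXCL11 defining full efficacy. Assay used 50,000 CXCR3 Gi CHOK1 cells/well in pH 7.4 HEPES-buffered HBSS with 0.1% BSA, compound 0-10 μM over 12 points, 30 min incubation.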

By EC50 is commonly meant the midpoint of the concentration-response curve. Turning to `Cc1c(Cl)ccc(NC(=O)[C@H](CCN)NC(=O)[C@@H]2Cc3ccccc3CN2C(=O)CCC(=O)N2CCCC3(CCC3)C2)c1Cl` [Compound 15-51], the EC50 is < 50 nM.

With `C[C@H]1CN(C(=O)CCC(=O)N2Cc3ccccc3C[C@H]2C(=O)N[C@@H](CCN)C(=O)Nc2ccc(Cl)c(Cl)c2F)CCN1C` [Compound 15-63], the EC50 is < 50 nM.

As to `NCC[C@H](NC(=O)[C@@H]1Cc2ccccc2CN1C(=O)CCC(=O)c1ccccc1)C(=O)Nc1c(Cl)cccc1Cl` [Compound 14-7], the EC50 is > 500 nM.

As to `Cc1cc(NC(=O)[C@H](CCN)NC(=O)[C@@H]2Cc3ccccc3CN2C(=O)CCC(=O)N2CC(C)(c3ccccc3)C2)ccc1Cl` [Compound 12-11], the EC50 is < 50 nM.

For the compound `Cc1cc(NC(=O)[C@H](CCN)NC(=O)[C@@H]2Cc3ccccc3CN2C(=O)CCC(=O)N2CCCC23CCC3)cc(C)c1Cl` [Compound 10-10], the EC50 was < 50 nM.

Turning to `CC1(C)CCN(C(=O)CCC(=O)N2Cc3cc(F)ccc3C[C@H]2C(=O)N[C@@H](CCN)C(=O)Nc2ccc(Cl)c(Cl)c2F)CC1` [Compound 15-60], the EC50 was < 50 nM.

`NCC[C@H](NC(=O)[C@@H]1Cc2ccccc2CN1C(=O)CCC(=O)c1ccccc1)C(=O)Nc1ccc2ccccc2c1` [Compound 2-28]: the EC50 was < 50 nM.

Consider `Cc1ccccc1NC(=O)[C@H](CCCCN)NC(=O)[C@@H]1Cc2ccccc2CN1C(=O)CCC(=O)c1ccccc1` [Compound 1-12], for which the EC50 was 250 to 500 nM.

Consider `N#Cc1c(NC(=O)[C@H](CCN)NC(=O)[C@@H]2Cc3ccccc3CN2C(=O)CCC(=O)c2ccccc2)ccc(Cl)c1Cl` [Compound 14-26], for which the EC50 lay within 50 to 250 nM.

For `Cc1cc(NC(=O)[C@H](Cc2ccnc(N)c2)NC(=O)[C@@H]2Cc3ccccc3CN2C(=O)CCC(=O)c2ccccc2)ccc1Cl` [Compound 3-10], the EC50 is 50 to 250 nM.

As to `Cc1cc(NC(=O)[C@H](CCN(C(C)C)C(C)C)NC(=O)[C@@H]2Cc3ccccc3CN2C(=O)CCC(=O)c2ccccc2)ccc1Cl` [Compound 3-7], the EC50 is < 50 nM.

As to `NCC[C@H](NC(=O)[C@@H]1Cc2ccccc2CN1C(=O)CCC(=O)c1ccccc1)C(=O)Nc1ccc(Cl)cc1OC(F)(F)F` [Compound 14-23], the EC50 is 50 to 250 nM.

On to `NCC[C@H](NC(=O)[C@@H]1Cc2ccccc2CN1C(=O)CCC(=O)c1ccccc1)C(=O)Nc1ccc(Cl)cc1C(F)(F)F` [Compound 14-12], for which the EC50 is 50 to 250 nM.

On to `CC[C@H]1CN(C(=O)CCC(=O)N2Cc3ccccc3C[C@H]2C(=O)N[C@@H](CCN)C(=O)Nc2ccc(Cl)c(C)c2)CCN1C` [Compound 12-150], for which the EC50 is < 50 nM.

As to `COc1ccccc1NC(=O)[C@H](CCN)NC(=O)[C@@H]1Cc2ccccc2CN1C(=O)CCC(=O)c1ccccc1` [Compound 1-35], the EC50 lay in the range of 250 to 500 nM.

For `NCCCC[C@H](NC(=O)[C@@H]1Cc2ccccc2CN1C(=O)CCC(=O)c1ccccc1)C(=O)Nc1ccc(Cl)c(Cl)c1` [Compound 1-1, (S)—N—((S)-6-amino-1-((3,4-dichlorophenyl)amino)-1-oxohexan-2-yl)-2-(4-oxo-4-phenylbutanoyl)-1,2,3,4-tetrahydroisoquinoline-3-carboxamide], the EC50 is 50 to 250 nM.

Turning to `COc1cc2c(cc1NC(=O)[C@H](CCN)NC(=O)[C@@H]1Cc3ccccc3CN1C(=O)CCC(=O)c1ccccc1)CCC2` [Compound 1-39], the EC50 was < 50 nM.

Regarding `Cc1cc(NC(=O)[C@H](CCN)NC(=O)[C@@H]2Cc3ccccc3CN2C(=O)CCC(=O)N2CCN(C(C)(C)C)CC2)ccc1Cl` [Compound 12-102], the EC50 was in the range of 50 to 250 nM.

With `Cc1cc(NC(=O)[C@H](CCCCN)NC(=O)[C@@H]2Cc3ccccc3CN2C(=O)CCC(=O)c2cccc(C(F)(F)F)c2)ccc1Cl` [Compound 7-8], the EC50 was < 50 nM.

Consider `Cc1cc(NC(=O)[C@H](CCN)NC(=O)[C@@H]2Cc3ccccc3CN2C(=O)CCC(=O)N2CCCC2C(F)(F)F)ccc1Cl` (stereo partly shown) [Compound 12-51], for which the EC50 was < 50 nM.

Turning to `Cc1cc(NC(=O)[C@H](CCN)NC(=O)[C@@H]2Cc3ccccc3CN2C(=O)CCC(=O)N2CCCCC2C(C)C)ccc1Cl` (stereo partly shown) [Compound 12-121], the EC50 was < 50 nM.

With `Cc1cc(NC(=O)[C@H](CCN)NC(=O)[C@@H]2Cc3ccccc3CN2C(=O)CCC(=O)N2CCC[C@H]2c2ccccc2)ccc1Cl` [Compound 12-147], the EC50 is < 50 nM.

With `CC1(C)CCCCN1C(=O)CCC(=O)N1Cc2ccc(F)cc2C[C@H]1C(=O)N[C@@H](CCN)C(=O)Nc1ccc(Cl)c(Cl)c1F` [Compound 34-1, (S)—N—((S)-4-amino-1-((3,4-dichloro-2-fluorophenyl)amino)-1-oxobutan-2-yl)-2-(4-(2,2-dimethylpiperidin-1-yl)-4-oxobutanoyl)-6-fluoro-1,2,3,4-tetrahydroisoquinoline-3-carboxamide], the EC50 is < 50 nM.

Regarding `Cc1cc(NC(=O)[C@H](CCN)NC(=O)[C@@H]2Cc3ccccc3CN2C(=O)CCC(=O)N2CCCC(C)(C)C2)ncc1Cl` [Compound 12-155], the EC50 was < 50 nM.

For the compound `Cc1cc(NC(=O)C(CC2CCNCC2)NC(=O)[C@@H]2Cc3ccccc3CN2C(=O)CCC(=O)c2ccccc2)ccc1Cl` (mixture of isomers) [Compound 4-11], the EC50 fell in the range of 50 to 250 nM.

Consider `Cc1cc(NC(=O)[C@H](CCN)NC(=O)[C@@H]2Cc3ccccc3CN2C(=O)CCC(=O)N(C)Cc2ccccc2)ccc1Cl` [Compound 12-16], for which the EC50 is > 500 nM.

For the compound `Cc1cc(NC(=O)[C@@H](CCN)NC(=O)[C@@H]2Cc3ccccc3CN2C(=O)CCC(=O)N2CCCOCC2)ccc1Cl` [Compound 12-21], the EC50 was < 50 nM.

Consider `Cc1cc(NC(=O)[C@H](CCN)NC(=O)[C@@H]2Cc3ccccc3CN2C(=O)CCC(=O)N2CCCC(O)C2)ccc1Cl` (stereo partly shown) [Compound 12-62], for which the EC50 was < 50 nM.

Take `Cc1cc(C#N)c(NC(=O)[C@H](CCN)NC(=O)[C@@H]2Cc3ccccc3CN2C(=O)CCC(=O)c2ccccc2)cc1Cl` [Compound 35-2]: the EC50 is < 50 nM.

With `Cc1cc(NC(=O)[C@H](CCN)NC(=O)[C@@H]2Cc3ccccc3CN2C(=O)CCC(=O)N2CCCC2C#N)ccc1Cl` (stereo partly shown) [Compound 12-77], the concentration giving a half-maximal response (EC50) is < 50 nM.

For the compound `Cc1cc(NC(=O)[C@H](CCNC(=O)CN)NC(=O)[C@@H]2Cc3ccccc3CN2C(=O)CCC(=O)N2CCCCC2)ccc1Cl` [Compound 31-1, (S)—N—((S)-4-(2-aminoacetamido)-1-((4-chloro-3-methylphenyl)amino)-1-oxobutan-2-yl)-2-(4-oxo-4-(piperidin-1-yl)butanoyl)-1,2,3,4-tetrahydroisoquinoline-3-carboxamide], the EC50 was < 50 nM.

In the case of `Cc1cc(NC(=O)[C@H](CCN2CCCC2)NC(=O)[C@@H]2Cc3ccccc3CN2C(=O)CCC(=O)c2ccccc2)ccc1Cl` [Compound 3-8], the EC50 is < 50 nM.

For the compound `NCC[C@H](NC(=O)[C@@H]1Cc2ccccc2CN1C(=O)CCC(=O)N1CCCC12CCC2)C(=O)Nc1ccc2c(c1)CCC2` [Compound 10-6], the EC50 was < 50 nM.

Consider `O=C(CCC(=O)N1Cc2ccccc2C[C@H]1C(=O)N[C@@H](CCN1CCCC(F)(F)C1)C(=O)Nc1ccc(Cl)c(Cl)c1F)c1ccccc1` [Compound 23-5], for which the EC50 was in the range of 250 to 500 nM.

As for `Cc1cc(NC(=O)[C@H](CCN)NC(=O)[C@@H]2Cc3ccccc3CN2C(=O)CCC(=O)N2CCCC(C(C)C)C2)ccc1Cl` (stereo partly shown) [Compound 12-96], the EC50 is < 50 nM.

Regarding `O=C(CCC(=O)N1Cc2ccccc2C[C@H]1C(=O)N[C@@H](CCN1CCC(F)(F)C1)C(=O)Nc1ccc2c(c1)CCC2)c1ccccc1` [Compound 23-7], the EC50 is 250 to 500 nM.

On to `COc1cc(F)ccc1NC(=O)[C@H](CCN)NC(=O)[C@@H]1Cc2ccccc2CN1C(=O)CCC(=O)c1ccccc1` [Compound 13-6], for which the EC50 is > 500 nM.

Regarding `CC1(C)CCCCN1C(=O)CCC(=O)N1Cc2ccccc2C[C@H]1C(=O)NC1(C(=O)Nc2ccc(Cl)c(Cl)c2F)CCNCC1` [Compound 12-135], the EC50 was < 50 nM.

Consider `COc1cc(C)c(F)cc1NC(=O)[C@H](CCN)NC(=O)[C@@H]1Cc2ccccc2CN1C(=O)CCC(=O)c1ccccc1` [Compound 2-71], for which the EC50 lay in the range of 50 to 250 nM.

Consider `Cc1cc(NC(=O)[C@H](CCN)NC(=O)[C@@H]2Cc3ccccc3CN2C(=O)CCC(=O)N2CCCC2C(C)C)ccc1Cl` (stereo partly shown) [Compound 12-71], for which the EC50 is < 50 nM.

As to `NCC[C@H](NC(=O)[C@@H]1Cc2ccc(F)cc2CN1C(=O)CCC(=O)N1CCCC12CCC2)C(=O)Nc1ccc(Cl)c(Cl)c1F` [Compound 15-59], the EC50 was < 50 nM.

As to `Cc1cc(NC(=O)[C@H](CCN)NC(=O)[C@@H]2Cc3ccccc3CN2C(=O)CCC(=O)N2CCC[C@@H]2C)ccc1Cl` [Compound 12-45], the EC50 was < 50 nM.

For `CCc1c(NC(=O)[C@H](CCN)NC(=O)[C@@H]2Cc3ccccc3CN2C(=O)CCC(=O)c2ccccc2)ccc(Cl)c1C` [Compound 2-54], the EC50 is > 500 nM.

For the compound `CN(C)CCCC[C@H](NC(=O)[C@@H]1Cc2ccccc2CN1C(=O)CCC(=O)c1ccccc1)C(=O)Nc1ccc(Cl)c(Cl)c1` [Compound 1-31], the EC50 is 250 to 500 nM.

With `Cc1cc(NC(=O)[C@H](CCN)NC(=O)[C@@H]2Cc3ccccc3CN2C(=O)CCC(=O)N(C)c2ccccc2)ccc1Cl` [Compound 12-124], the EC50 was 250 to 500 nM.

With `Cc1cc(NC(=O)[C@H](CCN)NC(=O)[C@@H]2Cc3ccccc3CN2C(=O)CCC(=O)N2CCC[C@@H]2CF)ccc1Cl` [Compound 12-144], the concentration giving a half-maximal response (EC50) is < 50 nM.
